Test results published in article PMC4979471 (Cell Death Discovery, 2015).
Like-named read-outs stand apart in the source and are kept apart here.

Tests used:
Experiment in all cases: Kinase selectivity, P33-radiolabeled assay
Format in all cases: biochemical
Details in all cases: 10 μM ATP
[1] = molecular target: T1, PKN2/PRK2 (Homo sapiens, UniProt Q16513)
T1 construct: purchased Reaction Biology Corp
Protocol: (§1) The compound was tested at a single dose in duplicate at 10 μM. Reactions were carried out at 10 μM ATP. Data are reported as % enzyme activity (relative to DMSO controls). The full data set is shown in the Supplementary Table I.

[2] = molecular target: T2, RSK4 (Homo sapiens, UniProt Q9UK32)
T2 construct: purchased Reaction Biology Corp
Protocol: as §1

[3] = molecular target: T3, JNK1 (Homo sapiens, UniProt P45983)
T3 construct: purchased Reaction Biology Corp
Protocol: as §1

[4] = molecular target: T4, SGK3/SGKL (Homo sapiens, UniProt Q96BR1)
T4 construct: purchased Reaction Biology Corp
T4 sequence (Q96BR1 1-496): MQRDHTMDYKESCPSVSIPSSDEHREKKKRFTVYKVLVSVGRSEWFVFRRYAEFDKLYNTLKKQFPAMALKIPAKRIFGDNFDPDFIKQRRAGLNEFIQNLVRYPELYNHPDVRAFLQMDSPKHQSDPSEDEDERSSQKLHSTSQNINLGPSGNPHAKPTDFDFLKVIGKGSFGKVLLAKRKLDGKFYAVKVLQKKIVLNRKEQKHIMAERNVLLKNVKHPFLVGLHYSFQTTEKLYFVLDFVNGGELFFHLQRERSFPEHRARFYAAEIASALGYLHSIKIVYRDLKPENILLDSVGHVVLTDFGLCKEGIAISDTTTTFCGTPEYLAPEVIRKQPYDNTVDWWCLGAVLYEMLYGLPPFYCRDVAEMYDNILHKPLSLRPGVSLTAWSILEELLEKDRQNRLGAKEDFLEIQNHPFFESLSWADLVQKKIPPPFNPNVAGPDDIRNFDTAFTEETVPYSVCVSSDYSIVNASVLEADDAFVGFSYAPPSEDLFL
Protocol: as §1

[5] = molecular target: T5, BRSK2 (Homo sapiens, UniProt Q8IWQ3)
T5 construct: purchased Reaction Biology Corp
T5 sequence (Q8IWQ3 1-736): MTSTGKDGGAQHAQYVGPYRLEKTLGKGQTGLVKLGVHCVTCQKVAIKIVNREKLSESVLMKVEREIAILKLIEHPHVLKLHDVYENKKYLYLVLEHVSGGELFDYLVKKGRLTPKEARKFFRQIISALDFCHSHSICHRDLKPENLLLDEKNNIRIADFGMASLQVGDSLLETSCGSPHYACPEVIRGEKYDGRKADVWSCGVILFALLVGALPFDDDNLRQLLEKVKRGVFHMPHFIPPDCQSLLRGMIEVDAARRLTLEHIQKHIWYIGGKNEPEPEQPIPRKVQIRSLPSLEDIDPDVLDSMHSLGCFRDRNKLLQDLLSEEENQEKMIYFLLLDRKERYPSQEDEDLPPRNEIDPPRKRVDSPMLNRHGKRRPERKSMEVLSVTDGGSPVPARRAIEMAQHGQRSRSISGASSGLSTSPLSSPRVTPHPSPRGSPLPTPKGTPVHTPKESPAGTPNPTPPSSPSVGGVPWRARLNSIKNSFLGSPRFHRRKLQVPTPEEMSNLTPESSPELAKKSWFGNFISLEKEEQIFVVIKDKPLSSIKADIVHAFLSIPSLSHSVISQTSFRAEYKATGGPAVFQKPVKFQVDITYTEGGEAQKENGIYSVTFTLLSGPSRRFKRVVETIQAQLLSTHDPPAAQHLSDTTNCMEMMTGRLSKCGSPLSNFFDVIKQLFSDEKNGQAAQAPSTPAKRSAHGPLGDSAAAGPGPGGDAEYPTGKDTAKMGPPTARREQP
Protocol: as §1

[6] = molecular target: T6, MLK2/MAP3K10 (Homo sapiens, UniProt Q02779)
T6 construct: purchased Reaction Biology Corp
Protocol: as §1

[7] = molecular target: T7, TYK1/LTK (Homo sapiens, UniProt P29376)
T7 construct: purchased Reaction Biology Corp
Protocol: as §1

[8] = molecular target: T8, KDR/VEGFR2 (Homo sapiens, UniProt P35968)
T8 construct: purchased Reaction Biology Corp
Protocol: as §1

[9] = molecular target: T9, SGK2 (Homo sapiens, UniProt Q9HBY8)
T9 construct: purchased Reaction Biology Corp
T9 sequence (Q9HBY8 1-367): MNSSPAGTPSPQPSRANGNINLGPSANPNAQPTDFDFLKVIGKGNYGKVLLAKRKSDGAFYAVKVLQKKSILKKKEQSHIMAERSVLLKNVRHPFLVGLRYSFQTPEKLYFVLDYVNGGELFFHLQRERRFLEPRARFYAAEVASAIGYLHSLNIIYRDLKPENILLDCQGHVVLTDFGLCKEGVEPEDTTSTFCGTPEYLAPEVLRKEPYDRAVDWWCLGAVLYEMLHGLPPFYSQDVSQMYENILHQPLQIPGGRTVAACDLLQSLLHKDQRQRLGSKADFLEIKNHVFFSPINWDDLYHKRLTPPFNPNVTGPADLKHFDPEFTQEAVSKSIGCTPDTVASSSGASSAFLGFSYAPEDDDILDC
Protocol: as §1

[10] = molecular target: T10, MSSK1/STK23 (Homo sapiens, UniProt Q9UPE1)
T10 construct: purchased Reaction Biology Corp
Protocol: as §1

[11] = molecular target: T11, TESK1 (Homo sapiens, UniProt Q15569)
T11 construct: purchased Reaction Biology Corp
Protocol: as §1

[12] = read-out: % Enzyme Activity (relative to DMSO controls) AVG
[13] = read-out: % Enzyme Activity (relative to DMSO controls) Data 1
[14] = read-out: % Enzyme Activity (relative to DMSO controls) Data 2

T7 sequence (P29376 17-864): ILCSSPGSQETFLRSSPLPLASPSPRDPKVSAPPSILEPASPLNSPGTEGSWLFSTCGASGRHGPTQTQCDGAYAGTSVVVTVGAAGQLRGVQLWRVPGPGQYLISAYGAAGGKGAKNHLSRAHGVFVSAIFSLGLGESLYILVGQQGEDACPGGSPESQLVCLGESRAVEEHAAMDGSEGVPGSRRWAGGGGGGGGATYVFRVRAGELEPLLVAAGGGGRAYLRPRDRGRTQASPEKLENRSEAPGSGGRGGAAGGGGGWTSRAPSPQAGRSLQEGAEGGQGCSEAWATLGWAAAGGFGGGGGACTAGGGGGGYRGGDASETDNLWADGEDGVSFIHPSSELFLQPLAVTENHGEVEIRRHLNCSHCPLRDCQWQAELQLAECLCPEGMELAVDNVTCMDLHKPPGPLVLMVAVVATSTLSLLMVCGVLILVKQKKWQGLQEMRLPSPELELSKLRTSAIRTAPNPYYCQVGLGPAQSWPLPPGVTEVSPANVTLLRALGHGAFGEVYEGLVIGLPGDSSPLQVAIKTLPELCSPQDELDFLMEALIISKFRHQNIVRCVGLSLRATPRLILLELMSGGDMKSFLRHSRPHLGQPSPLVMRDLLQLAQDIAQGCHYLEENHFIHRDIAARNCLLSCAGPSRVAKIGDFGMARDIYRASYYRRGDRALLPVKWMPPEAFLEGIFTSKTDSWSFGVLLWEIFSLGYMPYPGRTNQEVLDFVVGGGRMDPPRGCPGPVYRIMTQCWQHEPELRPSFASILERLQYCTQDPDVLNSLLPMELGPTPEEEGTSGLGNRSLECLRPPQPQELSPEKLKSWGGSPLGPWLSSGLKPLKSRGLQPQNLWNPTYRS
T1 sequence (Q16513 whole entry): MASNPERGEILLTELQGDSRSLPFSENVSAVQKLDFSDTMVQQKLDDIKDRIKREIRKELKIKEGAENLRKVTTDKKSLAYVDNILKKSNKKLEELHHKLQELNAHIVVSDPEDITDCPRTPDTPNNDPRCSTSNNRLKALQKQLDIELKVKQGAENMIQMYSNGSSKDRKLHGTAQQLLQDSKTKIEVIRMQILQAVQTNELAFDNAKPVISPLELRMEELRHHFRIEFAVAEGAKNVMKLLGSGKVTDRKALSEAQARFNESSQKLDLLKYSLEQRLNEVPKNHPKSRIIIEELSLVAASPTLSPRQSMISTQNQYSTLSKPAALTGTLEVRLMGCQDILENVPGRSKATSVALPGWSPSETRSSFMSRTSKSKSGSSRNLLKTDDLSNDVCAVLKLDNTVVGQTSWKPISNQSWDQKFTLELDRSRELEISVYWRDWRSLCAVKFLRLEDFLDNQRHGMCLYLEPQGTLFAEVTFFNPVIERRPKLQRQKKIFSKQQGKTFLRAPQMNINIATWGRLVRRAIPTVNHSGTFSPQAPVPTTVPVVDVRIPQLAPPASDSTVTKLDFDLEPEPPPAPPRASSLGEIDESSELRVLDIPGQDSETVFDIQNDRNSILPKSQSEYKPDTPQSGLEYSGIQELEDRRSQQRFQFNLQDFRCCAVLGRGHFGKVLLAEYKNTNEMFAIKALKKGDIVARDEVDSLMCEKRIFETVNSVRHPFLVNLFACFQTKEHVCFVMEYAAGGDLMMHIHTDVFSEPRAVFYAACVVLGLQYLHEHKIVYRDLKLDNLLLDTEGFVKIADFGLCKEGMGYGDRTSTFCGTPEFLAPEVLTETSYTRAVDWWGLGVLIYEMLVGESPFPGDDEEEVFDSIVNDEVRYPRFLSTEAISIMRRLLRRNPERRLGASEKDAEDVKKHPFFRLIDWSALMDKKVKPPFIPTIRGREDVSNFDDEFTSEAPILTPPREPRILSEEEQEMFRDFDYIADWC
T10 sequence (Q9UPE1 whole entry): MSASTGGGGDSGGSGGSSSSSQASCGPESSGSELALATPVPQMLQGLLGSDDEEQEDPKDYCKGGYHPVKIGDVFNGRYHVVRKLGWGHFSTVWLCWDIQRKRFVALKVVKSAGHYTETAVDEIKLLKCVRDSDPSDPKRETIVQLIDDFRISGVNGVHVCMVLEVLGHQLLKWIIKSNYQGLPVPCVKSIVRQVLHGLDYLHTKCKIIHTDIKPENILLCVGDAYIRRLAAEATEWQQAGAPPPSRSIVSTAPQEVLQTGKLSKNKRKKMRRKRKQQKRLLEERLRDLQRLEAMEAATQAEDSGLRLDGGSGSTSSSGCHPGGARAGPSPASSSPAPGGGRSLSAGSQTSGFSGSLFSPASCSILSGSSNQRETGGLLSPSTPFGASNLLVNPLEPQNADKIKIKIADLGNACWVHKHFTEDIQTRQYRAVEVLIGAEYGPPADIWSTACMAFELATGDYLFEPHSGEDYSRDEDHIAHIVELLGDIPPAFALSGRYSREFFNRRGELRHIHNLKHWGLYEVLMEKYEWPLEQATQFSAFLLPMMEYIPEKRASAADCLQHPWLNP
T11 sequence (Q15569 whole entry): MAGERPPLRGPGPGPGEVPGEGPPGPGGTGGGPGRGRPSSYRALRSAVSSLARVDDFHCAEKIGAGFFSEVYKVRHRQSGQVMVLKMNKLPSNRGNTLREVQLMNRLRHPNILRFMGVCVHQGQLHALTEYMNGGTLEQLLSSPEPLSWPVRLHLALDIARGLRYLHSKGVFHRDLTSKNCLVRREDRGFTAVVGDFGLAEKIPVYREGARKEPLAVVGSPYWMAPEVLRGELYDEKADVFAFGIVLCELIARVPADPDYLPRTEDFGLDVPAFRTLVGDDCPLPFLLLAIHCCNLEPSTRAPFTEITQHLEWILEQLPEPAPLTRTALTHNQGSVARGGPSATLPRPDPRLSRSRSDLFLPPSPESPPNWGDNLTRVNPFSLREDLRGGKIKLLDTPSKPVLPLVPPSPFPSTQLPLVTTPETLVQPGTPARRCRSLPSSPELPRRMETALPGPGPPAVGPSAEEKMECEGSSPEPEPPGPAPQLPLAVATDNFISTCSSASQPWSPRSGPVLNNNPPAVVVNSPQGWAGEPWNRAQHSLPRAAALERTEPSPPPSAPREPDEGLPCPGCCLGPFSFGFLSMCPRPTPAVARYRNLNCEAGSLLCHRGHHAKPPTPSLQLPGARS
T2 sequence (Q9UK32 whole entry): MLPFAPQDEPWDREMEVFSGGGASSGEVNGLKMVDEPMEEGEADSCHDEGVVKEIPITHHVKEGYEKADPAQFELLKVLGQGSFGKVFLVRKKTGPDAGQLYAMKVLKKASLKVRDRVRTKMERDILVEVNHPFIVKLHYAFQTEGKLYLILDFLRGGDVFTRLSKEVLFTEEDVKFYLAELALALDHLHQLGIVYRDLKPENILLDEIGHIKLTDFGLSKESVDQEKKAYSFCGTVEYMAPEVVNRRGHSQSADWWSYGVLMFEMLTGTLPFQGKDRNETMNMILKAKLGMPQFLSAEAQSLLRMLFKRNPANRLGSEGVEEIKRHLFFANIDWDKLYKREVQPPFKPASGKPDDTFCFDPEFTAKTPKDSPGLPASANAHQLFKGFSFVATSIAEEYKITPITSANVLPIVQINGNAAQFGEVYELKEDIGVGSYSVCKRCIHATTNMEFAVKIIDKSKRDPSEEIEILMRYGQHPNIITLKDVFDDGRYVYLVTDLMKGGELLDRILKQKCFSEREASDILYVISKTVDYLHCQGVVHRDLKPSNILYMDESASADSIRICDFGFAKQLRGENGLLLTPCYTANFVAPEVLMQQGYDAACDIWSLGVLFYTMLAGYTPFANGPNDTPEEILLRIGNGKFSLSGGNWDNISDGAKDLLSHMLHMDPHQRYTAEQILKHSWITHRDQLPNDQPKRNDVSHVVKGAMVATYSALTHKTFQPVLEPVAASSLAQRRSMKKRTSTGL
T6 sequence (Q02779 whole entry): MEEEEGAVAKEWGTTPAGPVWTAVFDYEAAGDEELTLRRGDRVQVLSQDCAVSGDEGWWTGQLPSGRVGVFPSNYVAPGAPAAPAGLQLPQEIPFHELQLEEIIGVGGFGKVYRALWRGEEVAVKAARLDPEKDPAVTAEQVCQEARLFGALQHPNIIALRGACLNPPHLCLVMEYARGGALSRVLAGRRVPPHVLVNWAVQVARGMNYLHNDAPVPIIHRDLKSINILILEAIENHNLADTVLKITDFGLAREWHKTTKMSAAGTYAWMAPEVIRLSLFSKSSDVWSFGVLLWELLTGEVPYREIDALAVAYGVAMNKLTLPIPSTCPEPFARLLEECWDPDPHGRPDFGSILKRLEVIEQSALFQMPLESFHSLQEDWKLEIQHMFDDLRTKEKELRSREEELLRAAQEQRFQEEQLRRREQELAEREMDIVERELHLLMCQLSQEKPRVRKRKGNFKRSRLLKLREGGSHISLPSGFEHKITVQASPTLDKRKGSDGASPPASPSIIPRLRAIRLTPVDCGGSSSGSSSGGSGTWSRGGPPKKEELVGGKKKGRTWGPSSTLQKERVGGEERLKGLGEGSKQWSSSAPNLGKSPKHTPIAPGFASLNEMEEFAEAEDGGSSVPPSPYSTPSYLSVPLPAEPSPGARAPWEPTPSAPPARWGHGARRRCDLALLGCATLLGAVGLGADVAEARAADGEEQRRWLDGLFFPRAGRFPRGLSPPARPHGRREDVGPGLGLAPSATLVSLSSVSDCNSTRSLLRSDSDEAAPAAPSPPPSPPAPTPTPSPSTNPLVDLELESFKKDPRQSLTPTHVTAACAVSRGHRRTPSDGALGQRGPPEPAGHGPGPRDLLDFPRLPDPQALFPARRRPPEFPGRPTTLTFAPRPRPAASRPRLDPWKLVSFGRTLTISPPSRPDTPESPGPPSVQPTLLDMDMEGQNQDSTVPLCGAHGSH

With CC(C)(C)C(=O)N1N=CC[C@H]1c1ccccc1 [GSK′963] the remaining activity at 10 µM [1, 12] was 93.3%, the remaining activity at 10 µM [1, 13] was 97.5% and the remaining activity at 10 µM [1, 14] was 89.2%. It also gave a remaining activity at 10 µM [2, 12] of 116%, a remaining activity at 10 µM [2, 13] of 116% and a remaining activity at 10 µM [2, 14] of 116%. It also gave a remaining activity at 10 µM [3, 12] of 97.1%, a remaining activity at 10 µM [3, 13] of 97.3% and a remaining activity at 10 µM [3, 14] of 97%. For the same compound, the remaining activity at 10 µM [4, 12] was 107%, the remaining activity at 10 µM [4, 13] was 104% and the remaining activity at 10 µM [4, 14] was 110%. The remaining activity at 10 µM [5, 12] was 104%, the remaining activity at 10 µM [5, 13] was 109% and the remaining activity at 10 µM [5, 14] was 98.7%. For the same compound, the remaining activity at 10 µM [6, 12] was 99.4%, the remaining activity at 10 µM [6, 13] was 98.6% and the remaining activity at 10 µM [6, 14] was 100%. For the same compound, the remaining activity at 10 µM [7, 12] was 104%, the remaining activity at 10 µM [7, 13] was 104% and the remaining activity at 10 µM [7, 14] was 105%. It also gave a remaining activity at 10 µM [8, 12] of 97.1%, a remaining activity at 10 µM [8, 13] of 96.8% and a remaining activity at 10 µM [8, 14] of 97.5%. It also gave a remaining activity at 10 µM [9, 12] of 107%, a remaining activity at 10 µM [9, 13] of 109% and a remaining activity at 10 µM [9, 14] of 106%. The remaining activity at 10 µM [10, 12] was 107%, the remaining activity at 10 µM [10, 13] was 108% and the remaining activity at 10 µM [10, 14] was 105%. It also gave a remaining activity at 10 µM [11, 12] of 116%, a remaining activity at 10 µM [11, 13] of 112% and a remaining activity at 10 µM [11, 14] of 120%.
